Laboratory results as given in the Kinase Knowledgebase extract (Sharma et al. 2016).

Target: CDK2 (human) (UniProt P24941)
Assay: Enzyme Assay
Conditions: for inhibition: concentration not given here

Row | inhibition | Ki | Structure (SMILES)
1 | 39% | – | Nc1nc(NC2CCN(C(=O)c3ccc(C=O)o3)CC2)sc1C(=O)c1c(F)cccc1F
2 | 37% | – | C=CC(C)C(=O)N1CCC(Nc2nc(N)c(C(=O)c3c(F)cccc3F)s2)CC1 (stereo not given)
3 | 51% | – | Cc1cc(C(=O)N2CCC(Nc3nc(N)c(C(=O)c4c(F)cccc4F)s3)CC2)ccc1Cl
4 | 70% | – | CC(C)C[C@H](O)C(=O)N1CCC(Nc2nc(N)c(C(=O)c3c(F)cccc3F)s2)CC1
5 | 41% | – | CC[C@@H](C(=O)N1CCC(Nc2nc(N)c(C(=O)c3c(F)cccc3F)s2)CC1)c1ccccc1
6 | 40% | – | COc1ncccc1C(=O)N1CCC(Nc2nc(N)c(C(=O)c3c(F)cccc3F)s2)CC1
7 | 71% | – | Nc1nc(NC2CCN(C(=O)/C=C/c3ccccc3F)CC2)sc1C(=O)c1c(F)cccc1F
8 | 79% | – | CCCCOCC(=O)N1CCC(Nc2nc(N)c(C(=O)c3c(F)cccc3F)s2)CC1
9 | 50% | – | Nc1nc(NC2CCN(C(=O)CCC3CCCCC3=O)CC2)sc1C(=O)c1c(F)cccc1F (stereo not given)
10 | -5% | – | CC(=O)OC(C(=O)N1CCC(Nc2nc(N)c(C(=O)c3c(F)cccc3F)s2)CC1)c1ccccc1 (stereo not given)
11 | 10% | – | COc1c(C)cccc1C(=O)N1CCC(Nc2nc(N)c(C(=O)c3c(F)cccc3F)s2)CC1
12 | 54% | – | CCOC(=O)CCC(=O)N1CCC(Nc2nc(N)c(C(=O)c3c(F)cccc3F)s2)CC1
13 | 51% | – | Nc1nc(NC2CCN(C(=O)/C=C/c3cccc(F)c3F)CC2)sc1C(=O)c1c(F)cccc1F
14 | 15% | – | CC(=O)CCC(=O)N1CCC(Nc2nc(N)c(C(=O)c3c(F)cccc3F)s2)CC1
15 | 42% | – | CC[C@H](C(=O)N1CCC(Nc2nc(N)c(C(=O)c3c(F)cccc3F)s2)CC1)c1ccccc1
16 | 0% | – | Nc1nc(NC2CCN(C(=O)c3ccc(C(F)(F)F)cc3C(F)(F)F)CC2)sc1C(=O)c1c(F)cccc1F
17 | – | 1.2 nM | CN(C)CCNc1ccc(S(=O)(=O)N2CCC(Nc3nc(N)c(C(=O)c4c(F)cccc4F)s3)CC2)cn1
18 | 34% | – | Nc1nc(NC2CCN(C(=O)c3ccoc3)CC2)sc1C(=O)c1c(F)cccc1F
19 | 57% | – | Nc1nc(NC2CCN(C(=O)Cc3cc(F)c(F)c(F)c3)CC2)sc1C(=O)c1c(F)cccc1F
20 | 28% | – | COC(C(=O)N1CCC(Nc2nc(N)c(C(=O)c3c(F)cccc3F)s2)CC1)c1ccccc1 (stereo not given)
21 | 25% | – | CCCCCCCC(CC)C(=O)N1CCC(Nc2nc(N)c(C(=O)c3c(F)cccc3F)s2)CC1 (stereo not given)
22 | 81% | – | Nc1nc(NC2CCN(C(=O)/C=C/c3cc(F)ccc3F)CC2)sc1C(=O)c1c(F)cccc1F

Row | inhibition | Ki | Structure (SMILES)
23 | 45% | – | CCCC[C@H]1CC[C@H](C(=O)N2CCC(Nc3nc(N)c(C(=O)c4c(F)cccc4F)s3)CC2)CC1
24 | 39% | – | CN1CCC[C@H]1C(=O)N1CCC(Nc2nc(N)c(C(=O)c3c(F)cccc3F)s2)CC1
25 | 12% | – | COC(=O)CCC(=O)N1CCC(Nc2nc(N)c(C(=O)c3c(F)cccc3F)s2)CC1
26 | 22% | – | CCCC/C=C/CC(=O)N1CCC(Nc2nc(N)c(C(=O)c3c(F)cccc3F)s2)CC1
27 | 44% | – | CCCSc1ncccc1C(=O)N1CCC(Nc2nc(N)c(C(=O)c3c(F)cccc3F)s2)CC1
28 | 5% | 500 nM | CC(=O)/C=C/C(=O)N1CCC(Nc2nc(N)c(C(=O)c3c(F)cccc3F)s2)CC1
29 | -5% | – | COC(=O)CCCCC(=O)N1CCC(Nc2nc(N)c(C(=O)c3c(F)cccc3F)s2)CC1
30 | 66% | – | Nc1nc(NC2CCN(C(=O)/C=C/c3ccc(O)cc3)CC2)sc1C(=O)c1c(F)cccc1F
31 | -43% | – | CCN(CC)C(=O)N1CCC(Nc2nc(N)c(C(=O)c3c(F)cccc3F)s2)CC1
32 | 29% | – | Nc1nc(NC2CCN(C(=O)C/C=C/c3ccccc3)CC2)sc1C(=O)c1c(F)cccc1F
33 | -10% | – | CC1CC1C(=O)N1CCC(Nc2nc(N)c(C(=O)c3c(F)cccc3F)s2)CC1 (stereo not given)
34 | 26% | – | CC(=O)C(O)(C(=O)N1CCC(Nc2nc(N)c(C(=O)c3c(F)cccc3F)s2)CC1)c1ccccc1 (stereo not given)
35 | 75% | – | CCOc1cccc(C(=O)N2CCC(Nc3nc(N)c(C(=O)c4c(F)cccc4F)s3)CC2)c1
36 | 47% | – | Nc1nc(NC2CCN(C(=O)C(O)c3cccc(O)c3)CC2)sc1C(=O)c1c(F)cccc1F (stereo not given)
37 | 76% | – | C=CCc1ccccc1OCC(=O)N1CCC(Nc2nc(N)c(C(=O)c3c(F)cccc3F)s2)CC1
38 | 58% | – | Nc1nc(NC2CCN(C(=O)C3COc4ccccc4O3)CC2)sc1C(=O)c1c(F)cccc1F (stereo not given)
39 | -15% | – | CC(Oc1ccccc1)C(=O)N1CCC(Nc2nc(N)c(C(=O)c3c(F)cccc3F)s2)CC1 (stereo not given)
40 | -24% | – | COC(=O)CC(=O)N1CCC(Nc2nc(N)c(C(=O)c3c(F)cccc3F)s2)CC1
41 | 34% | – | Nc1nc(NC2CCN(C(=O)C(O)Cc3ccc(O)cc3)CC2)sc1C(=O)c1c(F)cccc1F (stereo not given)
42 | 30% | – | Cc1ccc(C(C)C)c(C(=O)N2CCC(Nc3nc(N)c(C(=O)c4c(F)cccc4F)s3)CC2)c1O
43 | 58% | – | COc1cscc1C(=O)N1CCC(Nc2nc(N)c(C(=O)c3c(F)cccc3F)s2)CC1
44 | 17% | – | Nc1nc(NC2CCN(C(=O)Cc3ccncc3)CC2)sc1C(=O)c1c(F)cccc1F

Row | inhibition | Ki | Structure (SMILES)
45 | 49% | – | Nc1nc(NC2CCN(C(=O)c3ccco3)CC2)sc1C(=O)c1c(F)cccc1F
46 | -28% | – | Nc1nc(NC2CCN(S(=O)(=O)c3ccc(Oc4ccncc4)cc3)CC2)sc1C(=O)c1c(F)cccc1F
47 | 62% | – | COc1ccc(CC(=O)N2CCC(Nc3nc(N)c(C(=O)c4c(F)cccc4F)s3)CC2)cc1C
48 | 48% | – | CCC(O)C(=O)N1CCC(Nc2nc(N)c(C(=O)c3c(F)cccc3F)s2)CC1 (stereo not given)
49 | 66% | – | Nc1nc(NC2CCN(C(=O)Cc3c[nH]c4ccc(F)cc34)CC2)sc1C(=O)c1c(F)cccc1F
50 | 67% | – | Cc1nc(C)c(C(=O)N2CCC(Nc3nc(N)c(C(=O)c4c(F)cccc4F)s3)CC2)s1
51 | 48% | – | Nc1nc(NC2CCN(C(=O)/C=C/c3ccc4c(c3)CCC4)CC2)sc1C(=O)c1c(F)cccc1F
52 | -11% | – | Nc1nc(NC2CCN(C(=O)c3ccc(-c4ccccc4)cc3)CC2)sc1C(=O)c1c(F)cccc1F
53 | 50% | – | Nc1nc(NC2CCN(C(=O)c3ccccc3-n3cccc3)CC2)sc1C(=O)c1c(F)cccc1F
54 | 44% | – | Cc1cc(C)c(C(=O)N2CCC(Nc3nc(N)c(C(=O)c4c(F)cccc4F)s3)CC2)cc1C
55 | 41% | – | N#Cc1ccc(/C=C/C(=O)N2CCC(Nc3nc(N)c(C(=O)c4c(F)cccc4F)s3)CC2)cc1
56 | 64% | – | CC(O)(CC(=O)N1CCC(Nc2nc(N)c(C(=O)c3c(F)cccc3F)s2)CC1)C(F)(F)F (stereo not given)
57 | 61% | – | Nc1nc(NC2CCN(C(=O)CCOc3ccc(F)cc3)CC2)sc1C(=O)c1c(F)cccc1F
58 | 22% | – | N#Cc1ccc(NCC(=O)N2CCC(Nc3nc(N)c(C(=O)c4c(F)cccc4F)s3)CC2)cc1
59 | -23% | – | CS(=O)(=O)CS(=O)(=O)N1CCC(Nc2nc(N)c(C(=O)c3c(F)cccc3F)s2)CC1
60 | 73% | – | NC(=S)Nc1ccc(C(=O)N2CCC(Nc3nc(N)c(C(=O)c4c(F)cccc4F)s3)CC2)cc1
61 | 63% | – | COC1CCCC(C(=O)N2CCC(Nc3nc(N)c(C(=O)c4c(F)cccc4F)s3)CC2)C1 (stereo not given)
62 | 79% | – | Nc1nc(NC2CCN(C(=O)C3CC(=O)c4ccccc43)CC2)sc1C(=O)c1c(F)cccc1F (stereo not given)
63 | -2% | – | CCCCC(C)C(=O)N1CCC(Nc2nc(N)c(C(=O)c3c(F)cccc3F)s2)CC1 (stereo not given)
64 | 76% | – | Cc1cc(C)c(/C=C/C(=O)N2CCC(Nc3nc(N)c(C(=O)c4c(F)cccc4F)s3)CC2)cc1C
